For one series, the system named is nictitating-membrane. The series is described as follows: Adrenaline stimulated nictitating-membrane of anesthetized cats (peripheral vasodilation). Particulars: for change in adrenaline-induced nictitating-membrane contraction: anesthetized cats, 0.01 mg Adrenaline i.v.; for effectiveness compared to Compound A (nictitating-membrane): in words, from Table II. Format: in vivo. The protocol: a. Adrenaline stimulated nictitating-membrane of anesthetized cats
This experiment is a classical model for the measurements of a peripheral vasodilation. Male and female cats have been anesthetized with pentobarbital. After tracheotomy the contraction of the nictitating-membrane was recorded by means of a strain-gauge. As stimulating agent 0.01 mg Adrenaline has been administered intravenously in intervals of 10 minutes.

Series [1] is described as follows: Acute toxicity, 7-day test, method of Litchfield and Wilcoxon. The conditions noted are these: mouse, in vivo, mice. From the text: The toxicity has been determined in a 7-day test with NMRI-mice having an average body weight of 18 to 26 g according to the method of Litchfield and Wilcoxon.
The test system of the next series is isolated rabbit ears. The series is described as follows: Isolated rabbit ears, Pissensky's method (increased number of drops). As for the experimental part: b. Experiments on isolated rabbit ears
Male and female rabbits were killed 15 minutes after administration of heparine. Both ears were then cut off at the bases and examined according to Pissensky's method. The overflowing drops were measured by means of an electronic drop counter.

The conditions of series [2]: prior art, cited from earlier work.

Counter-ions that a name gives are not always drawn.

A word on the LD50: it is the dose at which mortality reaches 50%. Higher therefore signals a less toxic substance. On to `CCCCCCCCCC(=O)Oc1cc(C(C)C)c(OCCN(C)C)cc1C` [Compound 2, (4-Caprinyloxy-thymyl)-(2'-dimethylaminoathyl)-ether.HCl], for which the results for the “change in adrenaline-induced nictitating-membrane contraction” value (“change” below) in the series with nictitating-membrane (0.025 mg/kg i.v.), in the series with nictitating-membrane (0.5 mg/kg i.v.) and in the series on nictitating-membrane (2 mg/kg i.v.) were ~ 10%, ~ 50% and 80%, respectively. Further, in the series with nictitating-membrane, the “effectiveness compared to Compound A (nictitating-membrane)” value is “much more effective than Compound A”. The LD50 at 168 h was 96 mg/kg in series [1] (iv); 1020 mg/kg in series [1] (po, i.g.); 1550 mg/kg in series [1] (sc). For the same molecule, the “Increased number of drops measured in the isolated rabbit ear” value (“Increased number of drops measured” below) in the series with isolated rabbit ears (0,5 mg) was 10%; in the series with isolated rabbit ears (1 mg) it was 27%; with isolated rabbit ears (2 mg), 68%; with isolated rabbit ears (4 mg), ~ 80%; with isolated rabbit ears (0,025 mg) it was 15%.

Take `Cc1cc(OCCN(C)C)c(C(C)C)cc1OC(=O)OC(C)C` [Compound 1, (4-Isopropoxycarboxy-thymyl)-(2'-dimethylaminoathyl)-ether.HCl]: the “change” value is on record as ~ 60% in the series on nictitating-membrane (0.025 mg/kg i.v.), 100% in the series with nictitating-membrane (0.5 mg/kg i.v.) and “absolute in-” in the series with nictitating-membrane (2 mg/kg i.v.). Also, in the series on nictitating-membrane, the “effectiveness compared to Compound A (nictitating-membrane)” value is “much more effective than Compound A”. Further, the LD50 at 168 h in series [1] (iv) worked out at 44 mg/kg; in series [1] (po, i.g.) it was 272 mg/kg; in series [1] (sc), 210 mg/kg. In addition, the “Increased number of drops measured” value in the series with isolated rabbit ears (0,5 mg) was ~ 20%; in the series on isolated rabbit ears (1 mg) it was 34%; with isolated rabbit ears (2 mg) it was 58%; in the series on isolated rabbit ears (4 mg) it was 139%; in the series with isolated rabbit ears (0,025 mg) it was ~ 10%. For the same molecule, in the series with isolated rabbit ears (in words, from Table III), the “action on the vessels of isolated rabbit ears” value was “unexpected action on the vessels of isolated rabbit ears”.

Turning to `CCCCCCCC(=O)Oc1cc(C(C)C)c(OCCN(C)C)cc1C` [Compound 3, (4-Capryloxy-thymyl)-(2'-dimethylaminoathyl)-ether.HCl], the “change” value in the series on nictitating-membrane (0.025 mg/kg i.v.) is ~ 30%; with nictitating-membrane (0.5 mg/kg i.v.), 80%; in the series on nictitating-membrane (2 mg/kg i.v.), 100%. Also, the “effectiveness compared to Compound A (nictitating-membrane)” value in the series on nictitating-membrane is recorded as “much more effective than Compound A”. The LD50 at 168 h is 25 mg/kg in series [1] (iv) and 400 mg/kg in series [1] (po, i.g.). Moreover, the results for the “Increased number of drops measured” value in the series on isolated rabbit ears (0,5 mg) and with isolated rabbit ears (0,025 mg) were 80% and ~ 40%, respectively.

Take `CC(=O)Oc1cc(C(C)C)c(OCCN(C)C)cc1C` [Compound A, reference compound]: the “change” value was 0% with nictitating-membrane (0.025 mg/kg i.v.), 0% in the series on nictitating-membrane (0.5 mg/kg i.v.) and 50% in the series on nictitating-membrane (2 mg/kg i.v.). In addition, in series [2], the duration of action result was “short duration of action”. Further, the absorbability result in series [2] (thymoxamine) is listed as “low absorbability”. Further, the toxicity entry in series [2] (thymoxamine) is given as “relative toxicity”. The LD50 at 168 h in series [1] (iv) came out at 48 mg/kg; in series [1] (po, i.g.), 193 mg/kg; in series [1] (sc), 156 mg/kg. Also, the “Increased number of drops measured” value in the series on isolated rabbit ears (0,5 mg) came out at 15%; in the series on isolated rabbit ears (1 mg), 15%; with isolated rabbit ears (2 mg), 16%; with isolated rabbit ears (4 mg) it was 16%; in the series with isolated rabbit ears (0,025 mg), 14%.

Source of the values: patent US3966779A, “Thymol derivatives and a process for their preparation” (priority 1974, dated 1976).
